Reference: US4980377A, “1-(aminophenyl)-2-aminopropanone derivatives” (Laboratoire L. Lafon, priority 1984, dated 1990)
Entries after “also recorded” stand apart in the source; their conditions may differ. Structures can show the parent of a compound that is named as a salt.

Experiments:
[1] = Acute toxicity by intraperitoneal administration; format: in vivo, mouse; settings: mouse, in vivo, ip; male mice
Protocol: (§1) In the neuropsychopharmacological study which follows, a solution of CRL 41 153 in distilled water (pH 1.5) was administered intraperitoneally in a volume of 20 ml/kg to male mice and 5 ml/kg to male rats.

mice [2] = test: Overall behavior and reactivities in mice; format: in vivo, mouse; settings: dose not stated
Protocol: as §1
(§2) Groups of three animals are observed before and then 0.25 hour, 0.50 hour, 1 hour, 2 hours, 3 hours and 24 hours after the administration of CRL 41 153.

rats [3] = test: Overall behavior and reactivities in rats; format: in vivo, rat; settings: dose not stated
Protocol: as §1, §2

mice [4] = test: Interaction with apomorphine in mice; format: in vivo, mouse; settings: i.p.
Protocol: Groups of 6 mice receive CRL 41 153 0.5 hour before the subcutaneous injection of 1 or 16 mg/kg of apomorphine.

rats [5] = test: Interaction with apomorphine in rats; format: in vivo, rat; settings: i.p.
Protocol: CRL 41 153 is administered to groups of 6 rats 0.5 hour before the subcutaneous injection of 0.5 mg/kg of apomorphine.

rats [6] = test: Interaction with amphetamine; format: in vivo, rat; settings: i.p.
Protocol: Amphetamine (2 mg/kg) is injected intraperitoneally into groups of 6 rats 30 minutes after the administration of CRL 41 153. […] 4 mg/kg and 16 mg/kg, CRL 41 153 potentiates the intensity and duration of the stereotypies induced by amphetamine.

mice [7] = test: Interaction with reserpine; format: in vivo, mouse; settings: i.p.
Protocol: Four hours after the intraperitoneal injection of 2.5 mg/kg of reserpine, groups of 6 mice receive CRL 41 153.

mice [8] = test: Interaction with oxotremorine; format: in vivo, mouse; settings: i.p.
Protocol: CRL 41 153 is administered to groups of 6 mice 0.5 hour before the intraperitoneal injection of 0.5 mg/kg of oxotremorine.

mice [9] = test: Spontaneous motility; format: in vivo, mouse; settings: i.p.
Protocol: 0.5 hour after they have received CRL 41 153, the mice (6 per dose, 12 control animals) are placed in an actimeter, where their motility is recorded for 30 minutes.

mice [10] = test: Motility reduced by habituation to the enclosure; format: in vivo, mouse; settings: i.p.
Protocol: After they have stayed In the actimeters for 18 hours, (he mice (6 per dose, 12 control animals) receive CRL 41 153. They are immediately returned to their respective enclosures and, half an hour later, their motility is recorded for 30 minutes.

mice [11] = test: Motility reduced by hypoxic aggression; format: in vivo, mouse; settings: i.p.
Protocol: Half an hour after they have received CRL 41 153, the mice (10 per dose, 20 control animals) are subjected to acute hypobaric anoxia [pressure reduction of 600 mm Hg (i.e. about 8×10^4 Pa) in 90 seconds; release of vacuum in 45 seconds] and are then placed in an actimeter, where their motility is recorded for 10 minutes.

mice [12] = test: Interaction with barbital; format: in vivo, mouse; settings: i.p., barbital 220 mg/kg
Protocol: Half an hour after the administration of CRL 41 153, groups of 10 mice receive an intraperitoneal injection of barbital (220 mg/kg).

mice [13] = test: Behavioral despair; format: in vivo, mouse; settings: forcibly immersed mice, i.p.
Text: Half an hour after they have received CRL 41 153, groups of 6 mice are placed in a beaker filled with water to a height of 6 cm. The total period of immobility between the 2nd and 6th minutes following immersion is noted.

dogs = test: Cardiovascular study in anesthetized dogs; format: in vivo, dog
How it was run: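 Nembutal-anaesthetized dogs (~14 kg) given CRL 41 194 (n=2) or CRL 41 221 (n=4) intraduodenally at successive 0.1, 0.5, 1, 2.5, 5 and 10 mg/kg doses. Blood pressure, heart rate, femoral and vertebral flow, rectal temperature measured; skin colour observed, plus bile colour (CRL 41 194).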

humans = test: Clinical study: vasodilator; format: in vivo, human
Text: In the treatment of diseases associated with the blood circulation through the vessels.

[14] = system: gravid White New Zealand female rabbits; test: Teratogenicity in gravid White New Zealand rabbits; format: in vivo, rabbit; settings: day 5 to day 18 of gestation; for Affected foetuses, %: normal limit 1.5%
How it was run: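 Fetuses harvested by cesarean on gestation day 29 were scored for number and for any malformation (limb blockade, anury, tail or skull defects, exencephaly).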

[15] = pH of solutions in distilled water; format: physicochemical
Protocol: The neuropsychopharmacological study was undertaken according to the procedures described above for CRL 41 153, CRL 41 213 being adminstered intraperitoneally, in solution in distilled water, in a volume of 20 ml/kg to male mice and a volume of 5 ml/kg to male rats, and the pH of the injected solution varying with the concentration of CRL 41 213 according to the data given in Table II below.

CNS = test: Neuropsychopharmacological profile as a whole; format: in vivo, mice and rats
Protocol: as §1

[16] = anesthetized dogs, intraduodenal

CC(C(=O)c1ccc(N)cc1)N1CCCC1 (stereo not drawn) [CRL 41 222, 1-(4-aminophenyl)-2-pyrrolidinopropanone dihydrochloride]
LD50 [1]: 87 mg/kg
Overall behavior: observed effects (summary) (mice [2]): excitation in mice and rats
Stereotype movements (summary) (mice [2]): presence of stereotype movements
Overall behavior: observed effects (summary) (rats [3]): excitation in mice and rats
Stereotype movements (summary) (rats [3]): presence of stereotype movements
Effect on hypothermia induced by apomorphine (mice [4]): antagonism of the hypothermia
Effect on stereotypies induced by apomorphine (rats [5]): potentiation of the stereotypies
Effect on stereotypies induced by amphetamine (rats [6]): potentiation of the stereotypies
Effect on hypothermia induced by reserpine (mice [7]): antagonism of the hypothermia
Effect on ptosis induced by reserpine (mice [7]): antagonism of the ptosis induced by reserpine
Effect on hypothermic action of oxotremorine (mice [8]): antagonism of the hypothermia
Effect on trembling induced by oxotremorine (mice [8]): antagonism of the trembling induced by oxotremorine
Spontaneous motor activity (mice [9]): an increase in the motor activity
Motor activity of mice accustomed to their enclosure (mice [10]): resumption in the motor activity of mice accustomed to their enclosure
Motor recovery of mice after hypobaric hypoxia (mice [11]): improvement in the motor recovery
Duration of the sleep induced by barbital (mice [12]): distinct antagonism of the sleep induced by barbital
Period of immobility due to despair (mice [13]): a reduction in the period of immobility
Vasodilator (conclusion) (dogs): vasodiating properties
Effect of propanolol or atenolol on the action of the product (dogs; anesthetized dogs): acts by stimulating the β-cardiac and vascular receptors
Effect on hypertension induced by norepinephrine (dogs; anesthetized dogs): moderately increases the hypertension induced by norepinephrine
Effects of isoprenaline (not further specified) (dogs; anesthetized dogs): without modifying the effects of isoprenaline
Rectal temperature (dogs; anesthetized dogs): The rectal temperature and skin temperature rise
Skin temperature (dogs; anesthetized dogs): The rectal temperature and skin temperature rise
Blood pressure (dogs; [16]): A hypotensive action appears at 20 mg/kg as a drop in the diastolic blood pressure
Femoral flow (dogs; [16]): substantial and regular increase in the femoral and vertebral flows
Heart rate (dogs; [16]): accompanied by tachycardia
Respiration (dogs; [16]): Respiratory stimulation is observed in all the animals
Vertebral flow (dogs; [16]): substantial and regular increase in the femoral and vertebral flows
Vasodilator in human clinical use (humans): good peripheral vasodilator at a daily dose of 2×10 mg
Affected foetuses, number ([14]; 5 mg/kg daily): 1
Total foetuses (live) ([14]; 5 mg/kg daily): 85
Affected foetuses, % ([14]; 5 mg/kg daily): 1.29%
Affected foetuses, number ([14]; 10 mg/kg daily): 0
Total foetuses (live) ([14]; 10 mg/kg daily): 92
Affected foetuses, % ([14]; 10 mg/kg daily): 0%
pH ([15]; 0.1 g/liter in distilled water): 5
pH ([15]; 0.2 g/liter in distilled water): 4.5
pH ([15]; 0.4 g/liter in distilled water): 4.0
pH ([15]; 0.8 g/liter in distilled water): 3.5
pH ([15]; 1.6 g/liter in distilled water): 3.0
pH ([15]; 3.2 g/liter in distilled water): 2.5
pH ([15]; 6.4 g/liter in distilled water): 2.0
pH ([15]; 12.8 g/liter in distilled water): 1.5
pH ([15]; ≤0.05 g/liter in distilled water): 5.5
Antidepressant effects (overall) (CNS; conclusion of the tests): possessing antidepressant, stimulant and arousing properties
Stimulant effects (overall) (CNS; conclusion of the tests): possessing antidepressant, stimulant and arousing properties
α-adrenergic stimulant effects (overall) (CNS; conclusion of the tests): peripheral α-adrenergic stimulant effects
Peripheral α-adrenergic signs (mydriasis, salivation, lacrimation, exophthalmos) (CNS; species and dose not stated, dihydrochloride): mydriasis; also recorded: salivation and lacrimation
